PubChem BioAssay (NCI)
Where “and” joins values, the source holds several entries; their conditions need not be identical. Equal entries are not always repeated.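 Interpolation was linear, between the two tested concentrations surrounding the appropriate level; five concentrations were tested over 48 hours in 96-well plates. Here, GI50 denotes the concentration required for 50% inhibition of growth. The concentration for full growth arrest is given as TGI.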

Experiments:
Assay in all cases: NCI tumour cell line growth inhibition, 48 h
SK-MEL-5 melanoma = test system: SK-MEL-5 melanoma
HT29 colon = test system: HT29 colon
SNB-75 CNS = test system: SNB-75 CNS
SF-295 CNS = test system: SF-295 CNS
SK-OV-3 ovarian = test system: SK-OV-3 ovarian
CAKI-1 renal = test system: CAKI-1 renal
UO-31 renal = test system: UO-31 renal
HOP-92 NSCLC = test system: HOP-92 NSCLC
DU-145 prostate = test system: DU-145 prostate

| Compound | TGI (SK-MEL-5 melanoma) | TGI (HT29 colon) | TGI (SNB-75 CNS) | TGI (SF-295 CNS) | TGI (SK-OV-3 ovarian) | TGI (CAKI-1 renal) | TGI (UO-31 renal) | TGI (HOP-92 NSCLC) | TGI (DU-145 prostate) | GI50 (SK-MEL-5 melanoma) | GI50 (HT29 colon) | GI50 (SF-295 CNS) | GI50 (SNB-75 CNS) | GI50 (SK-OV-3 ovarian) | GI50 (CAKI-1 renal) | GI50 (UO-31 renal) |
| --- | --- | --- | --- | --- | --- | --- | --- | --- | --- | --- | --- | --- | --- | --- | --- | --- |
| Cc1cccc(C(C)(C)C)c1NC(=O)CC1Sc2ccccc2NC1=O (stereo not given) | > 100 µM | > 100 µM | > 100 µM | > 100 µM | > 100 µM | > 100 µM | > 100 µM | 80 µM |  |  |  |  |  |  |  |  |
| COc1ccc2c(c1OC)C(=O)c1cnccc1C2=O | > 100 µM | > 100 µM | > 100 µM | > 100 µM | > 100 µM | > 100 µM | > 100 µM | > 100 µM |  |  |  |  |  |  |  |  |
| COc1ccc2nc(NC(=O)C(=O)C(C#N)c3ccc(Cl)c(Cl)c3)sc2c1 (stereo not given) | > 100 µM | > 100 µM | > 100 µM | > 100 µM | > 100 µM | > 100 µM | > 100 µM | > 100 µM |  |  |  |  |  |  |  |  |
| Cc1ccccc1-n1c(C)nc(-c2ccccc2)cc1=O | > 100 µM | > 100 µM | > 100 µM | > 100 µM | > 100 µM | > 100 µM | > 100 µM | > 100 µM |  |  |  |  |  |  |  |  |
| CN1CC(=O)N(C)c2nc[nH]c2C1=O | > 100 µM | > 100 µM | > 100 µM | > 100 µM | > 100 µM |  | > 100 µM |  |  |  |  |  |  |  |  |  |
| Nn1c(N=Nc2c(O)[nH]c3c(Cl)cc(Cl)cc23)n[nH]c1=S | > 100 µM | > 100 µM |  | > 100 µM | > 100 µM | > 100 µM | > 100 µM | > 100 µM |  |  |  |  |  |  |  |  |
| COC1=C2CC(C)CC(OC)C(O)C(C)/C=C(\C)C(OC(N)=O)C(OC)/C=C\C=C(/C)C(=O)NC(=C(/C=N/N3CCCCC3)C1=O)C2=O (stereo not given) | 29.9 µM | 26.6 µM | 41 µM | 30.1 µM | 55.7 µM | 37 µM | 23.4 µM | 35.4 µM | 32.9 µM |  |  |  |  |  |  |  |
| O=C(O)CCSC(=O)Nc1ccc(N=Nc2ccccc2)cc1 | > 100 µM | > 100 µM | > 100 µM | > 100 µM | > 100 µM | > 100 µM | > 100 µM | > 100 µM |  |  |  |  |  |  |  |  |
| O=C(NS(=O)(=O)c1ccccc1)C(Cc1ccccc1)C(Cc1ccccc1)C(=O)NS(=O)(=O)c1ccccc1 (stereo not given) | > 100 µM | > 100 µM | > 100 µM | > 100 µM | > 100 µM | > 100 µM | > 100 µM | > 100 µM |  |  |  |  |  |  |  |  |
| Nc1n[nH]c(CCc2nc(N)n[nH]2)n1 | > 100 µM | > 100 µM | > 100 µM | > 100 µM | > 100 µM | > 100 µM | > 100 µM | > 100 µM |  |  |  |  |  |  |  |  |
| CCC(Oc1ccc(OC)c2ccccc(=O)c12)C(=O)O (stereo not given) | > 100 µM | > 100 µM | > 100 µM | > 100 µM | > 100 µM |  | > 100 µM |  |  |  |  |  |  |  |  |  |
| O=C1c2nc3n(c2C(=O)c2c1nc1n2CCC1)CCC3 | 3.05 µM and 2.78 µM | 10.8 µM | 28.9 µM | 17.9 µM | 92.2 µM | 23.9 µM | 37.4 µM | 26.3 µM |  | 1.68 µM | 5.14 µM | 6.72 µM |  |  |  |  |
| COC(=O)C1=C(c2ccc3c(c2)OCO3)OC(c2cc(OC)c(OC)c(OC)c2)C1 (stereo not given) | 60.3 µM | 4.63 µM | > 100 µM | > 100 µM | 8.09 µM | > 100 µM | > 100 µM | > 100 µM |  |  |  |  |  |  |  |  |
| O=C(O)c1ccccc1NC(=O)C1CCCCC1 | > 100 µM | > 100 µM | > 100 µM | > 100 µM | > 100 µM |  | > 100 µM | > 100 µM |  |  |  |  |  |  |  |  |
| O=C(CC1C(=O)Nc2ccccc2S1=O)Nc1ccc(Cl)cc1 (stereo not given) |  | > 100 µM | > 100 µM | > 100 µM | 63.9 µM | > 100 µM | > 100 µM | 83.4 µM |  |  |  |  |  |  |  |  |
| CC1=C(C(=O)Nc2ccc([N+](=O)[O-])cc2)C(c2ccccc2F)C(C(=O)Nc2ccc([N+](=O)[O-])cc2)=C(C)N1 | 40.6 µM | 95.2 µM | 83.9 µM | 63 µM | 79.7 µM | 68.9 µM | 51.7 µM | 31.1 µM |  |  |  |  |  |  |  |  |
| CC1(C)OC(=O)C=C([O-])O1.CC1(C)OC(=O)C=C([O-])O1.CC[O-].CC[O-].[Ti+4] | > 100 µM | > 100 µM | > 100 µM | > 100 µM | > 100 µM | > 100 µM | > 100 µM |  |  | > 100 µM | > 100 µM | > 100 µM | > 100 µM | > 100 µM | > 100 µM | > 100 µM |
| CN(C)C(=S)/N=c1\ss/c(=N\S(=O)(=O)c2ccccc2)n1N(C)C | > 100 µM |  | > 100 µM |  | > 100 µM | > 100 µM | > 100 µM |  |  |  |  |  |  |  |  |  |
| CCCCCCC(/C=N/O)C(C)(O)CCC (stereo not given) | > 100 µM | > 100 µM | > 100 µM | > 100 µM |  | > 100 µM | > 100 µM |  |  |  |  |  |  |  |  |  |
